Source: US10544147B2, “Purine inhibitors of human phosphatidylinositol 3-kinase delta” (MERCK SHARP & DOHME CORP., priority 2016, dated 2020)

Columns and labels:
PI3Kdelta = PI3Kdelta (Homo sapiens (Human), UniProt O00329); assay: HTRF PI3K biochemical assay, delta isoform; conditions: 0.3 nM enzyme, 100 uM ATP, 50 uM PIP2; form screened (neutral or TFA salt)
Method: (§1) HTRF PI3K Biochemical Assay to Measure Intrinsic Potency of Compound Inhibitors
(§2) This loss of signal is nonlinear with respect to both increasing product and time. This non-linear detection will impact accuracy of IC50 calculations; therefore, there is a need for a correction factor to obtain more accurate IC50 values. This correction is derived from a PIP3 standard curve run in a separate assay plate. All data were calculated using the ratio of acceptor (APC) to donor (Europium) fluorescence in each well of the assay plate. […] An IC50 was then calculated fitting the % inhibition data to the equation: % inhibition=min+(Max−min)/1+([inhibitor]/IC50)^n) where min is the % inhibition with inhibitor, max is the signal in DMSO control, and n is the Hill slope.
(§3) The biological data was collected using the methodology described above.

PI3Kalpha = PI3Kalpha (Homo sapiens (Human), UniProt P42336); assay: HTRF PI3K biochemical assay, alpha isoform (selectivity versus delta); conditions: ratio PI3K-alpha IC50 value/PI3K-delta IC50 value
Sequence of PI3Kalpha (P42336 whole entry, canonical isoform): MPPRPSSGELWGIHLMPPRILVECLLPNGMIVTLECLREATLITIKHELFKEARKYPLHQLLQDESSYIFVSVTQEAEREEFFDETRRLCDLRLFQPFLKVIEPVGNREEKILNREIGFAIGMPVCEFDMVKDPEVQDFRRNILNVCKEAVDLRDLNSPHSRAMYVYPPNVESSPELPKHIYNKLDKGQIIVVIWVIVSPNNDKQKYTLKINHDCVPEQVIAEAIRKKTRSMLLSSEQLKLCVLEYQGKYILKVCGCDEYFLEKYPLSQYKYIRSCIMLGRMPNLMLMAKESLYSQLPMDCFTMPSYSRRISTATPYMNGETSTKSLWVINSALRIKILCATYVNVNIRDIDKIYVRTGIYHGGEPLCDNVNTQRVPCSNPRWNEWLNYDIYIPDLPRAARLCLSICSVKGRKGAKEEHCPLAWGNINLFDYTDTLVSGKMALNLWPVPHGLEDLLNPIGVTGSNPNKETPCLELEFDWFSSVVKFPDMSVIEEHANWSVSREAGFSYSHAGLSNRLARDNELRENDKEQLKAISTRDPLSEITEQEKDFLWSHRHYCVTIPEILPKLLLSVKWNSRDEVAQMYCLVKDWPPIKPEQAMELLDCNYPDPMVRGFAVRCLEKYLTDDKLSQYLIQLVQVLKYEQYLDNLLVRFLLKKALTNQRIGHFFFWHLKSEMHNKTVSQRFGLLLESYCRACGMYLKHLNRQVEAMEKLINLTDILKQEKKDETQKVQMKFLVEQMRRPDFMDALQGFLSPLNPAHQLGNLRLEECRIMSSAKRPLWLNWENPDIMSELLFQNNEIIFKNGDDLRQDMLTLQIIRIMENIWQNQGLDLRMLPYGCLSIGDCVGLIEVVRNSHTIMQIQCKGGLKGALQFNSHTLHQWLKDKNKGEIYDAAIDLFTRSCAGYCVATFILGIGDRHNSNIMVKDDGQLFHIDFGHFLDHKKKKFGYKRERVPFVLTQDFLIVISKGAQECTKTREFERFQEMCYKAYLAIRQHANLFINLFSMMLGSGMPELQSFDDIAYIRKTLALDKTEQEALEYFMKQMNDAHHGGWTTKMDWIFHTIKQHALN
Sequence of PI3Kalpha (P27986 whole entry partner, canonical isoform): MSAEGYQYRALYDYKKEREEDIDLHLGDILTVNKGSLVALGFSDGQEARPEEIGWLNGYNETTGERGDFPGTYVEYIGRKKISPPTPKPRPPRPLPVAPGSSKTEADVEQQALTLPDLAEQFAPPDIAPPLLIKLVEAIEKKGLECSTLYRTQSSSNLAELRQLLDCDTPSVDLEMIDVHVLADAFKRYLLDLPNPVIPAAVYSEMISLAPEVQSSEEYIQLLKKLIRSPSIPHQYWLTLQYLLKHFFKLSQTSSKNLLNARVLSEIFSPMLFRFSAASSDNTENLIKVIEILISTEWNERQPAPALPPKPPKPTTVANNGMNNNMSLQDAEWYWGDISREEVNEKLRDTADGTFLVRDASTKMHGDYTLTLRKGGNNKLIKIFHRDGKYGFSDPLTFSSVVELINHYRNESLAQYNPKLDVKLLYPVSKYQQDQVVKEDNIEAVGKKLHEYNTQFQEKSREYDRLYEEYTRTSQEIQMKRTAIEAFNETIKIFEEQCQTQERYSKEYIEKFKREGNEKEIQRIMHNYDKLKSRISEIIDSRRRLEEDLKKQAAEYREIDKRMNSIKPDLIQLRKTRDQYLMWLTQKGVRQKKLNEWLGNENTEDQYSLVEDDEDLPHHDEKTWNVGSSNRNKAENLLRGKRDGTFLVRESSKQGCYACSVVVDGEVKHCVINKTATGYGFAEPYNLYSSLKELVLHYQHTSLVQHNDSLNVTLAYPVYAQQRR
Method: as §1, §2, §3
The determination of relative selectivity for a given compound is defined as the relative ratio of the (PI3K-alphaIC50 value/PI3K-delta IC50 value).

Sequence of PI3Kdelta (O00329 whole entry, canonical isoform): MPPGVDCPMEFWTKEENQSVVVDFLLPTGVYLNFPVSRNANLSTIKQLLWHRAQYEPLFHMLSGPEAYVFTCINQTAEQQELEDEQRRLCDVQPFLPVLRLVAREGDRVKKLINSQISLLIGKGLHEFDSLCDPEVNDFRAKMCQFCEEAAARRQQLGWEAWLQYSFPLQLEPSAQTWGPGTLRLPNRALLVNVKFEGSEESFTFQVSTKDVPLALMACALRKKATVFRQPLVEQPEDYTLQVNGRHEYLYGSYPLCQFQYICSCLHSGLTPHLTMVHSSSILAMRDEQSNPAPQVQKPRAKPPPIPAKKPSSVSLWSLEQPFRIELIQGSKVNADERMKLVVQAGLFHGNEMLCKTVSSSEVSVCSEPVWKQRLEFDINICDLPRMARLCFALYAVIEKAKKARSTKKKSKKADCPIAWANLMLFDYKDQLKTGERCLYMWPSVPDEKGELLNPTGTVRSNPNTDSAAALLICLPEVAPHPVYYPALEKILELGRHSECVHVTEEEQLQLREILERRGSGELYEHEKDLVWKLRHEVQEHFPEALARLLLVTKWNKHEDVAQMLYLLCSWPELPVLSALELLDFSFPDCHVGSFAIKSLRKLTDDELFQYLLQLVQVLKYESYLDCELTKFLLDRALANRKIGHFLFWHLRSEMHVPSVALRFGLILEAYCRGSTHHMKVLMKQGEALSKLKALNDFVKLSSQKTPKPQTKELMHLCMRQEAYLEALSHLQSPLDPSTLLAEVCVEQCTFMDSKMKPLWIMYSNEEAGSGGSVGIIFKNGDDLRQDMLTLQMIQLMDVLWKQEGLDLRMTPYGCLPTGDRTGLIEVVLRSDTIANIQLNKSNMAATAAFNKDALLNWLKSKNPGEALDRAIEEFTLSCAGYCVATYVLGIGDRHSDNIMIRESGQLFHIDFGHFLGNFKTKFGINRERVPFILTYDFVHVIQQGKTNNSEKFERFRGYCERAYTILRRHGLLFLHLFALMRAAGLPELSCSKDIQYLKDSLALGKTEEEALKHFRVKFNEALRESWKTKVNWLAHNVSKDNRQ
Sequence of PI3Kdelta (P27986 whole entry partner, canonical isoform): as the sequence (P27986 whole entry partner, canonical isoform) above

SMILES	IC50 (PI3Kdelta) [nM]	Relative Selectivity versus PI3Kalpha (PI3Kalpha)
CCn1c(-c2cnc(C)nc2)nc2c(-c3ccc4c(c3)C(C)(C3CCOCC3)C(=O)N4)ncnc21 (single isomer, unassigned) [Compound 1-34, 5-(9-Ethyl-8-(2-methylpyrimidin-5-yl)-9H-purin-6-yl)-3-methyl-3-(tetrahydro-2H-pyran-4-yl)indolin-2-one]	48	8
CCn1c(-c2cnc(C)nc2)nc2c(-c3ccc4c(c3)C(Cc3ccccc3)OC(=O)N4)ncnc21 (single isomer, unassigned) [Compound 4-2, (R or S)-4-benzyl-6-[9-ethyl-8-(2-methylpyrimidin-5-yl)-9H-purin-6-yl]-1,4-dihydro-2H-3,1-benzoxazin-2-one]	35	>10
CCn1c(-c2cnc(C)nc2)nc2c(-c3ccc4c(c3)C(C)(CC3CC3)C(=O)N4C)ncnc21 (single isomer, unassigned) [Compound 1-10, 3-(Cyclopropylmethyl)-5-(9-ethyl-8-(2-methylpyrimidin-5-yl)-9H-purin-6-yl)-1,3-dimethylindolin-2-one]	194	>10
Cc1ncc(-c2nc3c(-c4ccc5c(c4)C(C)(NCC(C)(C)F)C(=O)N5)ncnc3n2C)cn1 (single isomer, unassigned) [Compound 2-67, (R or S)-3-((2-fluoro-2-methylpropyl)amino)-3-methyl-5-(9-methyl-8-(2-methylpyrimidin-5-yl)-9H-purin-6-yl)indolin-2-one]	344	>10
CCn1c(-c2cnc(C)nc2)nc2c(-c3ccc4c(c3)C(C)(N3C[C@@H](C)O[C@@H](C)C3)C(=O)N4)ncnc21 (single isomer, unassigned) [Compound 2-4, (R or S)-3-[(cis)-2,6-dimethylmorpholin-4-yl]-5-[9-ethyl-8-(2-methylpyrimidin-5-yl)-9H-purin-6-yl]-3-methyl-1,3-dihydro-2H-indol-2-one]	5	>10
CCn1c(-c2cnc(C)nc2)nc2c(-c3ccc4c(c3)C(Cc3ccccc3)OC(=O)N4)ncnc21 (single isomer, unassigned) [Compound 4-1, (R or S)-4-benzyl-6-[9-ethyl-8-(2-methylpyrimidin-5-yl)-9H-purin-6-yl]-1,4-dihydro-2H-3,1-benzoxazin-2-one]	97	2
CCn1c(-c2cnc(C)nc2)nc2c(-c3ccc4c(c3)C(C)(N3C[C@@H](F)[C@H](F)C3)C(=O)N4)ncnc21 (single isomer, unassigned) [Compound 2-62, 3-(R or S)-((3R,4R)-3,4-difluoropyrrolidin-1-yl)-5-(9-ethyl-8-(2-methylpyrimidin-5-yl)-9H-purin-6-yl)-3-methylindolin-2-one]	6	>10
CCn1c(-c2cnc(C)nc2)nc2c(-c3ccc4c(c3)C(C)(N3CC5(CCO5)C3)C(=O)N4)ncnc21 (single isomer, unassigned) [Compound 2-7, (R or S)-5-[9-ethyl-8-(2-methylpyrimidin-5-yl)-9H-purin-6-yl]-3-methyl-3-(1-oxa-6-azaspiro[3.3]hept-6-yl)-1,3-dihydro-2H-indol-2-one]	8	>10
Cc1ncc(-c2nc3c(-c4ccc5c(c4)C(C)(NCC(C)(C)F)C(=O)N5)ncnc3n2C)cn1 (single isomer, unassigned) [Compound 2-68, (R or S)-3-((2-fluoro-2-methylpropyl)amino)-3-methyl-5-(9-methyl-8-(2-methylpyrimidin-5-yl)-9H-purin-6-yl)indolin-2-one]	2	>10
Cc1ncc(-c2nc3c(-c4ccc5c(c4)C4(CCCN4C(=O)C4CC4)C(=O)N5CC(C)(C)O)ncnc3n2C)cn1 (single isomer, unassigned) [Compound 3-17, (R or S)-1′-(cyclopropanecarbonyl)-1-(2-hydroxy-2-methylpropyl)-5-(9-methyl-8-(2-methylpyrimidin-5-yl)-9H-purin-6-yl)spiro[indoline-3,2′-pyrrolidin]-2-one]	2.5	>10
CCn1c(-c2cnc(C)nc2)nc2c(-c3ccc4c(c3)C(C)(NCC(C)(C)C#N)C(=O)N4)ncnc21 (single isomer, unassigned) [Compound 2-40, (R or S)-3-((5-(9-ethyl-8-(2-methylpyrimidin-5-yl)-9H-purin-6-yl)-3-methyl-2-oxoindolin-3-yl)amino)-2,2-dimethylpropanenitrile]	179	>10
CCn1c(-c2cnc(C)nc2)nc2c(-c3ccc4c(c3)C(C)(CC(C)C)NC4=O)ncnc21 (single isomer, unassigned) [Compound 4-7, (R or S)-5-[9-ethyl-8-(2-methylpyrimidin-5-yl)-9H-purin-6-yl]-3-methyl-3-(2-methylpropyl)-2,3-dihydro-1H-isoindol-1-one]	7	>10
Cc1ncc(-c2nc3c(-c4ccc5c(c4)C4(CCCN4C(=O)C4CC4)C(=O)N5CCO)ncnc3n2C)cn1 (single isomer, unassigned) [Compound 3-18, (R or S)-1′-(cyclopropanecarbonyl)-1-(2-hydroxyethyl)-5-(9-methyl-8-(2-methylpyrimidin-5-yl)-9H-purin-6-yl)spiro[indoline-3,2′-pyrrolidin]-2-one]	1.9	>10
CCn1c(-c2cnc(C)nc2)nc2c(-c3ccc4c(c3)C(C)(CC(C)C)OC(=O)N4)ncnc21 (single isomer, unassigned) [Compound 4-3, (R or S)-6-[9-ethyl-8-(2-methylpyrimidin-5-yl)-9H-purin-6-yl]-4-methyl-4-(2-methylpropyl)-1,4-dihydro-2H-3,1-benzoxazin-2-one]	59	6
CCn1c(-c2cnc(C)nc2)nc2c(-c3ccc4c(c3)C(C)(N[C@H]3C[C@H](OC)C3)C(=O)N4)ncnc21 (single isomer, unassigned) [Compound 2-82, 5-(9-ethyl-8-(2-methylpyrimidin-5-yl)-9H-purin-6-yl)-3-(((1R,3R)-3-methoxycyclobutyl)amino)-3(R or S)-methylindolin-2-one]	1570	8
CCn1c(-c2cnc(C)nc2)nc2c(-c3ccc4c(c3)C(C)(N3CC(C)(C#N)C3)C(=O)N4)ncnc21 (single isomer, unassigned) [Compound 2-6, (R or S)-1-{5-[9-ethyl-8-(2-methylpyrimidin-5-yl)-9H-purin-6-yl]-3-methyl-2-oxo-2,3-dihydro-1H-indol-3-yl}-3-methylazetidine-3-carbonitrile]	3	>10
CCn1c(-c2cnc(C)nc2)nc2c(-c3ccc4c(c3)C(C)(N[C@H](C)C3CC3)C(=O)N4)ncnc21 (mixture of isomers) [Compound 2-11, 3-{[(1R)-1-cyclopropylethyl]amino}-5-[9-ethyl-8-(2-methylpyrimidin-5-yl)-9H-purin-6-yl]-3(R and S)-methyl-1,3-dihydro-2H-indol-2-one]	15	>10
CCn1c(-c2cnc(C)nc2)nc2c(-c3ccc4[nH]c(=O)n(C(C)C5CC5)c4c3)ncnc21 (single isomer, unassigned) [Compound 5-8, (R or S)-1-(1-cyclopropylethyl)-6-[9-ethyl-8-(2-methylpyrimidin-5-yl)-9H-purin-6-yl]-1,3-dihydro-2H-benzimidazol-2-one]	24	>10
CCn1c(-c2cnc(C)nc2)nc2c(-c3ccc4c(c3)C(C)(Cc3ccccc3)C(=O)N4C)ncnc21 (single isomer, unassigned) [Compound 1-21, 3-Benzyl-5-(9-ethyl-8-(2-methylpyrimidin-5-yl)-9H-purin-6-yl)-1,3-dimethylindolin-2-one]	4	>10
CCn1c(-c2cnc(C)nc2)nc2c(-c3cnc4c(c3)C(C)(CC3CC3)C(=O)N4)ncnc21 (single isomer, unassigned) [Compound 1-14, (R or S)-3-(cyclopropylmethyl)-5-(9-ethyl-S-(2-methylpyrimidin-5-yl)-9H-purin-6-yl)-3-methyl-1,3-dihydro-2H-pyrrolo[2,3-b]pyridin-2-one]	16	>10
CCn1c(-c2cnc(C)nc2)nc2c(-c3ccc4c(c3)C(C)(CC)C(=O)N4)ncnc21 (single isomer, unassigned) [Compound 1-39, (R or S)-3-ethyl-5-(9-ethyl-8-(2-methylpyrimidin-5-yl)-9H-purin-6-yl)-3-methylindolin-2-one]	85	>10
CCn1c(-c2cnc(C)nc2)nc2c(-c3ccc4c(c3)C(C)(N[C@@H](C)C3CC3)C(=O)N4)ncnc21 (single isomer, unassigned) [Compound 2-13, 3-{[(1S)-1-cyclopropylethyl]amino}-5-[9-ethyl-8-(2-methylpyrimidin-5-yl)-9H-purin-6-yl]-3(R or S)-methyl-1,3-dihydro-2H-indol-2-one]	32	>10
